# Tested on: Factor VIII activity
# Assay: Factor VIII activity in blood of multiple sclerosis patients under treatment
# Format: in vivo, human
# Conditions: MS patient with elevated Factor VIII activity during exacerbation
# Text: In various embodiments, disclosed herein is a method of detecting or predicting a relapse of multiple sclerosis in an individual afflicted with a form of multiple sclerosis, comprising: (a) providing a blood sample of the individual; (b) testing the blood sample to determine a protein activity or protein level, wherein the protein is Factor VIII, von Willebrand factor, or Protein C; and (c) detecting a relapse of multiple sclerosis in the individual if the protein activity or protein level is elevated compared to the protein activity or protein level in an individual not afflicted with the form of multiple sclerosis or the patient's own lowest baseline value as a form of a control. In some of these embodiments, the form of multiple sclerosis is relapsing-remitting multiple sclerosis with or without secondary progression. In some embodiments, the multiple sclerosis in the individual is in remission. In some embodiments, the blood sample test to determine the protein activity or protein level is performed simultaneously with other blood tests, such as, partial thromboplastin time (PTT) test, International Normalized Ratio (INR) test, and erythrocyte sedimentation rate (ESR) test. In some of these embodiments, the blood sample tests are performed at least once per month during the treatment period and/or monitoring period of multiple sclerosis. […]
substance,measurement,value
TYSABRI: disease-modifying therapy for multiple sclerosis named only by trade name,Factor VIII activity after treatment,returned to normal

# Source: patent US11774460B2, “Diagnostic or predictor of relapsing remitting multiple sclerosis” (Dignity Health, priority 2016, dated 2023)
